The results in this text go back to ChEMBL document CHEMBL5096208, “Installation of Pargyline, a LSD1 Inhibitor, in the HDAC Inhibitory Template Culminated in the Identification of a Tractable Antiprostate Cancer Agent” (J Med Chem, 2021).

Series [1] is filed under the species Homo sapiens. The series is described as follows: Selectivity ratio of IC50 for human HDAC7 to IC50 for human HDAC6.
The subject of series [2] is DU-145. Briefly: Antitumor activity against human DU-145 cells xenografted in athymic nude mouse assessed as tumor growth inhibition at 100 mg/kg, po administered twice daily and measured upto 60 days by caliper method relative to control. Type of series: functional. As to conditions: DU-145, 1440 h, time <= 60 day, read-out: TGI. (A xenograft is tissue or cells of one species grown in another, often human tumour cells in immunodeficient mice.)

Series [3] is filed under the species Homo sapiens. The series is described as follows: Selectivity ratio of IC50 for human HDAC1 to IC50 for human HDAC6.
The nature of series [4]: AUC (0 to infinity) in Sprague-Dawley rat at 2 mg/kg, iv administered as single dose through tail vein measured upto 24 hrs post dose by UPLC-MS/MS analysis. As to conditions: in vivo. Type of series: ADME, organism-based. The arrangement: dose 2 mg/kg, time < 24 hrs, route iv.
Series [5] has as its system PC-3. The series is described as follows: Upregulation of acetyl-tubulin in human PC-3 cells at 0.625 to 5 uM by Western blot analysis. Type of series: functional, cell-based. As to conditions: dose 0.625-5 µM. (Immunoblotting shows a protein as a band on a membrane.)
For series [6], the system named is PC-3. The series is described as follows: Antiproliferative activity against human PC-3 cells assessed as cell growth inhibition incubated for 48 hrs by MTT assay. It counts as functional. Background: Tetrazolium dyes change colour on reduction, which living cells bring about.
The target of a further series is T1, Histone deacetylase 7 (Homo sapiens, UniProt Q8WUI4).
T1 sequence (Q8WUI4 whole entry): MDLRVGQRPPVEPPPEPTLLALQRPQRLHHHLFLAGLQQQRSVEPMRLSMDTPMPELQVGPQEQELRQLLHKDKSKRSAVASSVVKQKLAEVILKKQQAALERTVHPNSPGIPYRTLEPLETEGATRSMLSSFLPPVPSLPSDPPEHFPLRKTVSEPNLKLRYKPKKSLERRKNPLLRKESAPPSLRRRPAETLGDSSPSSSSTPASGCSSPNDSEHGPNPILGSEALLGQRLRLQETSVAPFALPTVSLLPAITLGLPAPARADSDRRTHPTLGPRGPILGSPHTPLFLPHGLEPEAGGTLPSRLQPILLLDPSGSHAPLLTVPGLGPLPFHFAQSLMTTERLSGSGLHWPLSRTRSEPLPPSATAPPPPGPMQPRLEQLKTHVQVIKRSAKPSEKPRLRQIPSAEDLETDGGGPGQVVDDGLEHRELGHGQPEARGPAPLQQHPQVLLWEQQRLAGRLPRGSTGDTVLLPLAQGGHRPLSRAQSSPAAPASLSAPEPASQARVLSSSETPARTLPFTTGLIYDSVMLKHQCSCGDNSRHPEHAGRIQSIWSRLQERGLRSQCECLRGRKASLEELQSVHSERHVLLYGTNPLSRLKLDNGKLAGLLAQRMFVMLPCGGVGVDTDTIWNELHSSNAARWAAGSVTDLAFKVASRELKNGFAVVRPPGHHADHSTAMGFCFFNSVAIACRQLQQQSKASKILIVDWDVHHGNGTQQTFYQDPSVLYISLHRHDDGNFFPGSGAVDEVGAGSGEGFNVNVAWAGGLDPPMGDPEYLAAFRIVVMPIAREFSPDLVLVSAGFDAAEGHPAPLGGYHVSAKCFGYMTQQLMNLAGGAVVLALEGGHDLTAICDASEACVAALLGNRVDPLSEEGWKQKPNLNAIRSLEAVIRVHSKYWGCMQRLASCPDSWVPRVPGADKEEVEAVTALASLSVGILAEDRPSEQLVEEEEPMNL
Briefly: Inhibition of human HDAC7 using Boc-Lys(trifluoroacetyl)-AMC as flurogenic substrate.

The nature of series [7]: Metabolic stability in human hepatocyte assessed as intrinsic clearance at 10 uM by LC-MS/MS analysis. As to conditions: hepatocytes, read-out: CLH. It counts as ADME, cell-based.
Series [8] relates to PC-3. The series is described as follows: Induction of cell death in LSD1 knockdown human PC-3 cells assessed as activation of procaspase-3 at 1.25 to 10 uM by Western blot analysis. As to conditions: dose 1.25-10 µM. It counts as functional, cell-based.
The nature of series [9]: Metabolic stability in Beagle dog hepatocyte assessed as parent compound remaining at 10 uM incubated for 60 mins by LC-MS/MS analysis. It counts as ADME, cell-based, Canis lupus familiaris. As to conditions: hepatocytes, read-out: Stability.
Series [10] is described as follows: Clearance in Sprague-Dawley rat at 2 mg/kg, iv administered as single dose through tail vein measured upto 24 hrs post dose by UPLC-MS/MS analysis. As to conditions: in vivo. It counts as ADME, organism-based.
Series [11] has as its system DU-145. Briefly: Upregulation of acetyl-histone H3 in human DU-145 cells at 0.625 to 5 uM by Western blot analysis. Type of series: functional, cell-based. As to conditions: dose 0.625-5 µM.
Series [12] is described as follows: Tmax in Sprague-Dawley rat at 25 mg/kg, po administered once via gavage measured upto 24 hrs post dose by UPLC-MS/MS analysis. It counts as ADME, organism-based. As to conditions: in vivo.
Series [13] has as its target T2, Polyamine deacetylase HDAC10 (Homo sapiens, UniProt Q969S8).
T2 sequence (Q969S8 whole entry): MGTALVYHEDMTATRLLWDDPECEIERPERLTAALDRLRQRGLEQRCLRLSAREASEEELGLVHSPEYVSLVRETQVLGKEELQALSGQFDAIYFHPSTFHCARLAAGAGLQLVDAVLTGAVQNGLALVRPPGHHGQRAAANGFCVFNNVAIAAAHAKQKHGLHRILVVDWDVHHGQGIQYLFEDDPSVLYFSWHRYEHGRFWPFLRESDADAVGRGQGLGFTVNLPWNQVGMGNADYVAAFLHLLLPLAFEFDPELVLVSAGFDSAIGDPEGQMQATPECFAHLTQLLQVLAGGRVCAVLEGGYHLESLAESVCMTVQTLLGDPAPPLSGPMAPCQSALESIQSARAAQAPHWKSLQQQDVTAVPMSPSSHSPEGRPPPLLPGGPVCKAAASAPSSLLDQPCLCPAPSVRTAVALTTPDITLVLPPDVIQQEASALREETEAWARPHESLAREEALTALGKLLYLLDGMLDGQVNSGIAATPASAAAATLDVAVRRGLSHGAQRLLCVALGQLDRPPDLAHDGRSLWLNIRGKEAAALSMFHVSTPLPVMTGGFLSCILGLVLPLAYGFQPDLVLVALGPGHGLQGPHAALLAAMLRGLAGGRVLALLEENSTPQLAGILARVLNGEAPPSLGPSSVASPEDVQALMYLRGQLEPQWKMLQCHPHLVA
Briefly: Inhibition of human HDAC10 using Ac-Spermidine-AMC as flurogenic substrate.

The test system of series [14] is PC-3. Briefly: Antitumor activity against human PC-3 cells xenografted in athymic nude mouse assessed as tumor growth inhibition at 100 mg/kg, po qd measured upto 25 days by caliper method relative to control. As to conditions: PC-3, 600 h, time <= 25 day, read-out: TGI. It counts as functional.
Series [15] is described as follows: AUC (0 to infinity) in Sprague-Dawley rat at 25 mg/kg, po administered once via gavage measured upto 24 hrs post dose by UPLC-MS/MS analysis. Type of series: ADME, organism-based. The arrangement: time < 24 hrs, dose 25 mg/kg, route po. As to conditions: in vivo.
Series [16] can be described thus: Metabolic stability in Sprague-Dawley rat hepatocyte assessed as parent compound remaining at 10 uM incubated for 30 mins by LC-MS/MS analysis. As to conditions: hepatocytes, read-out: Stability. Type of series: ADME, cell-based.
In series [17] the test system is PC-3. The series is described as follows: Induction of H3K4ME2 accumulation in human PC-3 cells at 0.5 to 10 uM incubated for 48 hrs by Western blot analysis. Type of series: functional, cell-based. As to conditions: dose 0.5-10 µM.
Series [18] in a line: Oral bioavailability in Sprague-Dawley rat at 25 mg/kg administered once via gavage measured upto 24 hrs post dose by UPLC-MS/MS analysis. It counts as ADME, organism-based. As to conditions: in vivo.
For another series, the target named is Histone deacetylase 1 (Homo sapiens, UniProt Q13547). The series is described as follows: Inhibition of human HDAC1 (379 to 382 residues) using RHKKAc as flurogenic substrate.
For series [19], the species on record is Homo sapiens. Briefly: Selectivity ratio of IC50 for human HDAC3 to IC50 for human HDAC6.

Calls of active or inactive are those of the source. No cut-off for these calls is given here. Bounds are passed on as bounds.

Sequence of Histone deacetylase 1 (Q13547 whole entry, the tested form may be a part): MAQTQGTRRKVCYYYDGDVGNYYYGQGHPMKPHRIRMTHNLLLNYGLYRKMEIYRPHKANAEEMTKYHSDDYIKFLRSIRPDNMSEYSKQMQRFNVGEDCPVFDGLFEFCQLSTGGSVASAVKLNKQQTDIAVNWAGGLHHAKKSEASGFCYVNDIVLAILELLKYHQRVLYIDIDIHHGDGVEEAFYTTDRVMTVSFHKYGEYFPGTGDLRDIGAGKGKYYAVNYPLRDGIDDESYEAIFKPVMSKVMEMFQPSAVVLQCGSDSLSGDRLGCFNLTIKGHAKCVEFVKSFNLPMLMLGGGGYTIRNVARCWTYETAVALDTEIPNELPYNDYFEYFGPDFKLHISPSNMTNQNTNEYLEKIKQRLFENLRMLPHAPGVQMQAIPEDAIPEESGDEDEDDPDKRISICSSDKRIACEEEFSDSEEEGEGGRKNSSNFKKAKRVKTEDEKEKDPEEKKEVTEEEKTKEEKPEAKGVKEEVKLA

Consider `C#CCN(C)Cc1cccc(NC(=O)CCCCCCC(=O)NO)c1`, for which the figures for the Ratio IC50 in the series listed under Homo sapiens [1], in the series listed under Homo sapiens [3] and in the series filed under Homo sapiens [19] were over 500, 33.6 and 5.8, respectively. The results for the inhibition in vivo at 100 mg/kg in the series with DU-145 [2] and with PC-3 [14] were 73.6% and 53.1%, respectively. Besides, the AUC(0-inf) – broadly, the area under the concentration-time curve extrapolated to infinity – worked out at 76.8 ng·h/mL in [4] and 113 ng·h/mL in series [15]. In addition, the result with PC-3 [5], with PC-3 [8], in the series on DU-145 [11] and in the series with PC-3 [17] was Active. The GI50 (as a rule, the concentration that inhibits growth by half) in the series with PC-3 [6] was 330 nM. The half-maximal inhibitory concentration (IC50) (commonly the concentration at which inhibition is half-maximal) is over 10000 nM on Histone deacetylase 7, 374 nM in series [13] and 673 nM on Histone deacetylase 1. Also, the CLint scaled at 10 µM in [7] was 9.78 mL/min/kg. In addition, the remaining at 1 h, 10 µM in series [9] turned out to be 81.2%. In series [10], the clearance (in general, a measure of how efficiently the substance is removed, as volume per time) is 500 mL/min/kg. Moreover, the Tmax (commonly the time at which the peak concentration occurs) in series [12] came to 30 min. Also, the remaining at 0.5 h, 10 µM in series [16] was found to be 72.2%. The bioavailability (as a rule, the share of a dose that reaches the circulation, judged against a reference dose that is usually intravenous) in [18] turned out to be 11.8%.
